Data on 3 molecules can be found in patent US7432365B1, “DNA molecules encoding beta clamp proteins of gram positive bacteria” (priority 1998, dated 2008).

For assay [1], the target named is Gram positive PolC (Bacillus subtilis, UniProt P13267). The settings on record: known from the literature; cited from earlier work.
The subject of assay [2] is DnaE polymerase. The assay is described as follows: Inhibition of synthesis on SSB coated primed M13mp18 ssDNA by TMAU. It counts as biochemical, S. pyogenes. As for the experimental part:
(§1) To test DnaE for function with τδδ′ and β, replication reactions contained 70 ng (25 fmol) of 30-mer singly primed M13 mp18 ssDNA, 0.82 μg of S. pyogenes SSB, and 3.3 ng-300 ng of DnaE (25 fmol −2.3 pmol) in 23.5 μl of 20 mM Tris-HCl (pH 7.5), 4% glycerol, 0.1 mM EDTA, 5 mM dithiothreitol (DTT), 40 μg/ml BSA, 2 mM ATP, 8 mM MgCl2, and 60 μM each of dGTP and dCTP. When present, reactions included 43.3 ng of β and 10 ng of τδδ′. Reactions were preincubated for 3 min at 37° C., and then NaCl was added to 40 mM followed by another 2 min at 37° C. DNA synthesis was initiated upon addition of 1.5 μl of 1.5 mM dATP, 0.5 mM [α^32P]-dTTP (specific activity 2,000-4,000 cpm/pmol). Aliquots of 25 μl were removed at the indicated times and quenched with an equal volume (25 μl) of 1% SDS, 40 mM EDTA. One-half of the quenched reaction was analyzed for total deoxynucleotide incorporation using DE81 filter paper and the other half was analyzed on a 0.8% neutral agarose gel. The effect of TMAU was also examined, in which 100 μM TMAU in DMSO (2% DMSO final concentration) was present. In this case, replication was allowed to proceed for 1 min before being quenched with […] of 1% SDS, 40 mM EDTA.
(§2) Gram positive PolC is known to be inhibited by the antibiotic hydroxyphenylaza-uracil (“HPUra”) and its derivatives. In FIG. 21F, the PolC·τδδ′, β and DnaE were tested for inhibition of synthesis on SSB coated primed M13mp18 ssDNA by an HPUra derivative, trimethylanilino-uracil (“TMAU”).

In assay [3] the target is T1, PolC·τδδ′, β (Streptococcus pyogenes, UniProt P0C0B7).
T1 construct: made in house; host or cells: E. coli BL21(DE3) RecA-, pET11a (β: pET16b)
Described as above. Type of assay: biochemical, S. pyogenes. As to conditions: 100 μM TMAU, 2% DMSO, 1 min. As for the experimental part:
as §1, §2

Assay [4] has as its target T2, S. aureus Pol III-L (Staphylococcus aureus, UniProt P0C1P9).
T2 construct: made in house; host or cells: E. coli BL21(DE3), pET11PolC (β: pET16b)
Nature of the assay: PolydA-oligodT replication assay, stimulation by beta. Type of assay: biochemical. The settings on record: linear polydA-oligodT template. Here is the method: PolydA-oligodT was prepared as follows. […] OligodT35 was synthesized by Oligos etc.

Assay [5] deals with E. coli Pol III core (Escherichia coli, UniProt P10443). The settings on record: linear polydA-oligodT template. The text has this: DNA synthesis was quantitated using DE81 paper as described in Rowen et al., “Primase, the DnaG Protein of Escherichia coli. An Enzyme Which Starts DNA Chains,” J. Biol. Chem., 253:758-764 (1979), which is hereby incorporated by reference.
Sequence of E. coli Pol III core (P10443 whole entry): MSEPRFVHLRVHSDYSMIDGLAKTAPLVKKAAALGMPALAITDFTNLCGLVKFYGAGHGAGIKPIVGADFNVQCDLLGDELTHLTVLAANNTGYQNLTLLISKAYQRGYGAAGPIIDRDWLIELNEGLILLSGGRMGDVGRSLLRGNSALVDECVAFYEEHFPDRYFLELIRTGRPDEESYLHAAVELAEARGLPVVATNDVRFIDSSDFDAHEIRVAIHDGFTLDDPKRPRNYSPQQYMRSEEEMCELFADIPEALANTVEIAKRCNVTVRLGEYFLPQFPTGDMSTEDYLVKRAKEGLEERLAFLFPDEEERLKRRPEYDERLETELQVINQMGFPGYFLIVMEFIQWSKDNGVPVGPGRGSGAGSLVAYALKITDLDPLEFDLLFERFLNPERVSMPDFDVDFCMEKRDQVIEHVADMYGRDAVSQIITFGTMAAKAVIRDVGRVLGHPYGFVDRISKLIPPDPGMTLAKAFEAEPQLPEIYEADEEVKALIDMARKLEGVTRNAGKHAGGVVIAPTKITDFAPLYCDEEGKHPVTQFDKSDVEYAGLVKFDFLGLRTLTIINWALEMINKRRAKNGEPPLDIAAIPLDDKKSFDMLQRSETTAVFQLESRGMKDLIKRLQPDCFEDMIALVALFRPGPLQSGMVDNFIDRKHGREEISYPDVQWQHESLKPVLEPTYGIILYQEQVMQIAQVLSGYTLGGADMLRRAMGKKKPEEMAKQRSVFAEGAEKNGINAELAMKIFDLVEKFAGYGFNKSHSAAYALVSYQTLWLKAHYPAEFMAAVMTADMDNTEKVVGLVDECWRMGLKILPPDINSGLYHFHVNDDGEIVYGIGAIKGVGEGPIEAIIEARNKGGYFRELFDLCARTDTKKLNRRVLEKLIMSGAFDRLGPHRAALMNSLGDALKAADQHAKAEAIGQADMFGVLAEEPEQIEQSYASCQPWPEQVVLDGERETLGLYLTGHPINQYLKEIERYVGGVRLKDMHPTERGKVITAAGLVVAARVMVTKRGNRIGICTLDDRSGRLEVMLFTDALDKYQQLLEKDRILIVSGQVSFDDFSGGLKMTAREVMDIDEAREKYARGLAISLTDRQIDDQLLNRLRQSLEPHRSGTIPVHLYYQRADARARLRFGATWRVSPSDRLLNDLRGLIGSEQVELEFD
Sequence of E. coli Pol III core (P03007 whole entry, further chain): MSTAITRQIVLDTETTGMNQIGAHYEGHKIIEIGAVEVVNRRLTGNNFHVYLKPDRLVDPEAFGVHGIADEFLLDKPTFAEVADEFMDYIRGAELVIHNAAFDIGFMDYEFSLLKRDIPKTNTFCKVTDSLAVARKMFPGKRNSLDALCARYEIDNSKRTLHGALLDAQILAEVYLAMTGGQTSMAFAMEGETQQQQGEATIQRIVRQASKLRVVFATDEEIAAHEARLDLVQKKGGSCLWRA
Sequence of E. coli Pol III core (P0ABS8 whole entry, further chain): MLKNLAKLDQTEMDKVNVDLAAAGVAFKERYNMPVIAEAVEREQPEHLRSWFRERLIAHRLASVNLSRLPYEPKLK

T2 sequence (P0C1P9 whole entry): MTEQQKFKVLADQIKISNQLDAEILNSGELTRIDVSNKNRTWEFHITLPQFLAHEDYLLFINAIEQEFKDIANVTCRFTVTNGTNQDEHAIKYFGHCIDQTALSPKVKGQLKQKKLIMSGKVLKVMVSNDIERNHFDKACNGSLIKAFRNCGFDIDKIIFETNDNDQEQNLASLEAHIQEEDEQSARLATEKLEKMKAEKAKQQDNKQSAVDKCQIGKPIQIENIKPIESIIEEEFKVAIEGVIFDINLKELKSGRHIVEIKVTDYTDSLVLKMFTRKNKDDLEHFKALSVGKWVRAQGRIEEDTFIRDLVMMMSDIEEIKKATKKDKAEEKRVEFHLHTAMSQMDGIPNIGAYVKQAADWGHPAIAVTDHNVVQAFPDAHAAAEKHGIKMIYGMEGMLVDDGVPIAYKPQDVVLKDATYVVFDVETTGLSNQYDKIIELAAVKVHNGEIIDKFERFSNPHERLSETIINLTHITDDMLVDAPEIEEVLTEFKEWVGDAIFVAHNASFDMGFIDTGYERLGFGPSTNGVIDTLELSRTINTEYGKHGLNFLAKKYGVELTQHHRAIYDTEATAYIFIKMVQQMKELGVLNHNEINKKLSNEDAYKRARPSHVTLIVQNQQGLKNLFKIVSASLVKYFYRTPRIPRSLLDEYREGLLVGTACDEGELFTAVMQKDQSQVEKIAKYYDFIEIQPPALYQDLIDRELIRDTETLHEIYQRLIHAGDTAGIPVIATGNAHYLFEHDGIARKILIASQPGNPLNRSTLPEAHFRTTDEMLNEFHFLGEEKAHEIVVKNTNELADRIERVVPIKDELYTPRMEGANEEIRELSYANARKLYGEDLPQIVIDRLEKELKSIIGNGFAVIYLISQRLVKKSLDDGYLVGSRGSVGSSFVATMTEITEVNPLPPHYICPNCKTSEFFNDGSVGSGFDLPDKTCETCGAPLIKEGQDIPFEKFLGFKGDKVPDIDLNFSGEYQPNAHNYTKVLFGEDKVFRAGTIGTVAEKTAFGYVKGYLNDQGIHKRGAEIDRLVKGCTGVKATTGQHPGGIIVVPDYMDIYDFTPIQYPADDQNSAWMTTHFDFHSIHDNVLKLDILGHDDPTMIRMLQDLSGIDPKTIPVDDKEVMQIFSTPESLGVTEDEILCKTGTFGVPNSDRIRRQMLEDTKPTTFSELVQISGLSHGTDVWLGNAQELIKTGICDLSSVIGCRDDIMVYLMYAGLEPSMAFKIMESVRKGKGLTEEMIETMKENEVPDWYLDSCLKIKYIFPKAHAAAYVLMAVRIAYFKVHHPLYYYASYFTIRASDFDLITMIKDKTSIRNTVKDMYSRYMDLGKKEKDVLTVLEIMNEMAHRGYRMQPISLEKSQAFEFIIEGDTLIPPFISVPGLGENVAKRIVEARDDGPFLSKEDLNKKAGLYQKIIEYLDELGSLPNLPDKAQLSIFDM
Sequence of Gram positive PolC (P13267 whole entry): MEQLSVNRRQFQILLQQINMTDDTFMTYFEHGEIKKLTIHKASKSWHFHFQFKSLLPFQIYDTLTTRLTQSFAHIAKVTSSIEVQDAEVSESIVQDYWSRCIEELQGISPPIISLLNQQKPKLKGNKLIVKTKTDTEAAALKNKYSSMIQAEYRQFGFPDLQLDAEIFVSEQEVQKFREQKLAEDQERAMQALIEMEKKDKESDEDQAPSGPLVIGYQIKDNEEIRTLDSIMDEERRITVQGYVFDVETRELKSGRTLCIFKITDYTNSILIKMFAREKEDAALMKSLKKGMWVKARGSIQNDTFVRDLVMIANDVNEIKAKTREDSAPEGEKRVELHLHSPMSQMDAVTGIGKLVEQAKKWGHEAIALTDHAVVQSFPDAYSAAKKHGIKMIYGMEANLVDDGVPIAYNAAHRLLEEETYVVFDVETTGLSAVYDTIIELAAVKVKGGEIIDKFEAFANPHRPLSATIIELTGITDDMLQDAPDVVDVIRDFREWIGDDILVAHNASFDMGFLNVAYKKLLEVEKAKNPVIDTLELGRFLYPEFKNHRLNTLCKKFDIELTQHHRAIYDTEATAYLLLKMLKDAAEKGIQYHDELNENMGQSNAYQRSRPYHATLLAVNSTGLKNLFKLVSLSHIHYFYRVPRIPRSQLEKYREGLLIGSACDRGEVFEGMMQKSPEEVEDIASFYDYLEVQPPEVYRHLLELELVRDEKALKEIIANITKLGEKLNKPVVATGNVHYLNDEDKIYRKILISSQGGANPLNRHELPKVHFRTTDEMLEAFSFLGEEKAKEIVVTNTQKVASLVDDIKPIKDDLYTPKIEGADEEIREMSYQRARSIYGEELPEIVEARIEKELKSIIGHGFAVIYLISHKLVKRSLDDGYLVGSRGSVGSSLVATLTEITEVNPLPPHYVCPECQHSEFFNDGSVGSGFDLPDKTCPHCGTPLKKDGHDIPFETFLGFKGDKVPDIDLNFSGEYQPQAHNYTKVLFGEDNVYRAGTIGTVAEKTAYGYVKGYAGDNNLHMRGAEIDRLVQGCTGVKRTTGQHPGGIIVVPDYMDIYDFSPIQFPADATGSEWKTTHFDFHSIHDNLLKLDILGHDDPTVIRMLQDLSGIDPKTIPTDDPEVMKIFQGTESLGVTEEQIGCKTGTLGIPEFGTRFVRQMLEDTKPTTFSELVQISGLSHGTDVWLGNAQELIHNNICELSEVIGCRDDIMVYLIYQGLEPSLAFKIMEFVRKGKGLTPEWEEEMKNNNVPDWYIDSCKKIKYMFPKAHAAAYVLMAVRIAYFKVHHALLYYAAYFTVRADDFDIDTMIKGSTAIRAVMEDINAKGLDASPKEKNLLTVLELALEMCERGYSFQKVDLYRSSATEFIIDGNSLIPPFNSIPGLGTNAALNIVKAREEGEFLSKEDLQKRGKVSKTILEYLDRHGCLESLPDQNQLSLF

Take `O=c1cc(N=Nc2ccc(O)cc2)[nH]c(=O)[nH]1` [HPUra, hydroxyphenylaza-uracil]: in assay [1], the “Inhibition of Gram positive PolC” value is recorded as “inhibited”.

Take `O=c1cc(Nc2ccc3c(c2)CCC3)[nH]c(=O)[nH]1` [TMAU, trimethylanilino-uracil]: the “Inhibition of synthesis (formation of RFII product)” value in assay [2] (100 μM TMAU, in the presence of τδδ′/β) was “not affected”; in assay [2] (TMAU, in the absence of τδδ′/β (not shown)) it was “not affected”; in assay [3], “prevented from forming the RFII product”.

B1: S. aureus beta: S. aureus beta subunit encoded by dnaN, SEQ. ID. No. 10, sliding clamp (protein)
chain: MMEFTIKRDYFITQLNDTLKAISPRTTLPILTGIKIDAKEHEVILTGSDSEISIEITIPKTVDGEDIVNISETGSVVLPGRFFVDIIKKLPGKDVKLSTNEQFQTLITSGHSEFNLSGLDPDQYPLLPQVSRDDAIQLSVKVLKNVIAQTNFAVSTSETRPVLTGVNWLIQENELICTATDSHRLAVRKLQLEDVSENKNVIIPGKALAELNKIMSDNEEDIDIFFASNQVLFKVGNVNFISRLLEGHYPDTTRLFPENYEIKLSIDNGEFYHAIDRASLLAREGGNNVIKLSTGDDVVELSSTSPEIGTVKEEVDANDVEGGSLKISFNSKYMMDALKAIDNDEVEVEFFGTMKPFILKPKGDDSVTQLILPIRTY
modifications: left off: small tags and cut ends
notes: ID; No. 10, sliding clamp
As to B1, the “Stimulation of polymerase DNA synthesis” value in assay [4] was 5-6 fold; in assay [5], “about 5 fold”.
